# According to article PMC3406249 (Hepatology (Baltimore, Md.), 2012):
# No end group written: not given here.
# Experiments:
# HCVpp (H77) = conditions: 50% cell culture inhibitory concentration, HCVpp entry; mean ± SD
# [1] = MTT assay; estimated
# JFH-1 HCVcc = conditions: 12 h
Sequence,IC50 (HCVpp (H77)),50% cytotoxic concentration relative to IC50 [1],IC50 (JFH-1 HCVcc)
GAIVSTALPQWRIYSYAG [CL58.6],23.8 ± 2.1 µM,–,–
MANAGLQLLGFILAFLGW [CL58],–,~100 fold,2 µM
